From the OPERA property sets (Mansouri et al. 2018)

Structure (SMILES) | melting point | boiling point | log10 Koc (L/kg) | log10 Henry constant (atm·m³/mol) | log10 vapour pressure (mmHg) | ready biodegradability | log10 Koa | log10 biodegradation half-life (days)
COc1ccc(C(=O)OC(=O)c2ccc(OC)cc2)cc1 | 94.5 °C |  |  |  |  |  |  | 
Cc1c(O)cccc1Cl | 86 °C | 225 °C |  |  |  |  |  | 
CCOP(=O)(NC(C)C)Oc1ccc(S(C)(=O)=O)c(C)c1 (configuration not stated) |  |  | 1.64 |  |  |  |  | 
Cc1c(NC(C)C)c(=O)n(-c2ccccc2)n1C | 80 °C |  |  |  |  |  |  | 
CCOCCOC(C)=O | -61.7 °C | 156 °C |  | -5.49 | 0.369 | readily biodegradable |  | 
NCCc1ccc(O)cc1 | 164 °C |  |  |  |  |  |  | 
ClC(Cl)(Cl)Cl | -23 °C | 76.8 °C | 1.85 | -1.56 | 2.06 | not readily biodegradable | 2.79 | 
C/C=C/C(C)CC (configuration not stated) | -126 °C | 87.6 °C |  |  |  |  |  | 
CCB(O)O | 40 °C |  |  |  |  |  |  | 
CCCCCCCCCCCCCCCCCCCCCl |  |  |  |  | -5.62 |  |  | 
CCCCc1ccc2ccccc2c1 | -5 °C | 292 °C |  |  |  |  |  | 
COc1ccccc1N1CCN(CCCC(=O)c2ccc(F)cc2)CC1 | 68 °C |  |  |  |  |  |  | 
N#CCc1ccc(N)cc1 | 46 °C | 312 °C |  |  |  |  |  | 
O=CC1CCCC1 |  | 134 °C |  |  |  |  |  | 
O=Cc1ccccc1F | -44.5 °C | 175 °C |  |  |  |  |  | 
BrCBr | -52.5 °C | 97 °C |  | -3.09 | 1.65 |  | 3.07 | 
N#CCCS(=O)(=O)O.[Na+] | 244 °C |  |  |  |  |  |  | 
CCC(C)CCC=C(C)C (configuration not stated) |  | 163 °C |  |  |  |  |  | 
OCc1ccc2c(c1)OCO2 | 58 °C |  |  |  |  |  |  | 
FC=C(F)F |  | -51 °C |  |  |  |  |  | 
OCCO |  | 197 °C |  | -7.22 | -1.04 | readily biodegradable |  | 

Structure (SMILES) | melting point | boiling point | log10 Koc (L/kg) | log10 Henry constant (atm·m³/mol) | log10 vapour pressure (mmHg) | ready biodegradability | log10 Koa | log10 biodegradation half-life (days)
CC1(C)C=Cc2c(ccc3c2OC2c4ccc(O)cc4OCC32)O1 (configuration not stated) | 178 °C |  |  |  |  |  |  | 
FC(F)(F)CCCl | -106 °C | 45.1 °C |  |  |  |  |  | 
N#Cc1ccc(Cl)cc1 | 95 °C | 223 °C |  |  |  |  |  | 
CCC(C)CCC(C)C (configuration not stated) |  | 136 °C |  |  |  |  |  | 0.778
Cc1cc(O)c(Cl)c(C)c1Cl | 83 °C |  |  |  |  |  |  | 
CCOCC(C)C |  | 81 °C |  |  |  |  |  | 
COc1ccc(/C=C/c2cc(OC)cc(=O)o2)cc1 | 156 °C |  |  |  |  |  |  | 
N#Cc1cccc(Cl)c1 | 41 °C |  |  |  |  |  |  | 
C=C(C)OC(C)=O | -92.9 °C | 97 °C |  |  |  |  |  | 
BrC1c2ccccc2-c2ccccc21 | 104 °C |  |  |  |  |  |  | 
Cc1cc(C)c(Br)c(C)c1Br | 65.5 °C | 285 °C |  |  |  |  |  | 
NC(=O)C1c2ccccc2CCc2ccccc21 | 194 °C |  |  |  |  |  |  | 
CCn1ccc2ccccc21 | 105 °C | 252 °C |  |  |  |  |  | 
ClCCCOc1ccccc1 | 12 °C | 250 °C |  |  |  |  |  | 
CC(CCl)OP(=O)(OC(C)CCl)OC(C)CCl (configuration not stated) | -40 °C |  |  |  |  | not readily biodegradable |  | 
NC(=O)Nc1ccc(F)cc1 |  |  | 1.52 |  |  |  |  | 
O=C(Nc1ccccc1)Nc1ccnc(Cl)c1 | 167 °C |  |  |  | -9.46 |  |  | 
CCN(CC)c1nc(C)cc(OP(=S)(OC)OC)n1 | 15 °C |  | 3 |  | -4.82 |  |  | 
O=[N+]([O-])CCc1ccccc1 | -23 °C | 250 °C |  |  |  |  |  | 
C=CC(C)(C)C | -115 °C | 41.2 °C |  |  | 2.63 |  |  | 
CCc1ccccc1C |  | 165 °C |  |  | 0.417 |  |  | 0.602

Structure (SMILES) | melting point | boiling point | log10 Koc (L/kg) | log10 Henry constant (atm·m³/mol) | log10 vapour pressure (mmHg) | ready biodegradability | log10 Koa | log10 biodegradation half-life (days)
Nc1cc(Cl)c(S(N)(=O)=O)cc1S(N)(=O)=O | 254 °C |  |  |  |  |  |  | 
NC(c1ccccc1)c1ccccc1 | 34 °C | 304 °C |  |  |  |  |  | 
Cc1ncc(CO)c(C(=O)O)c1O | 248 °C |  |  |  |  |  |  | 
N#CN | 44 °C |  |  |  | -2.43 |  |  | 
Clc1ccccc1 | -45.2 °C | 132 °C | 2.15 | -2.51 | 1.08 | not readily biodegradable | 3.31 | 
CCCCCOCCCCC | -69 °C | 190 °C |  |  | -0.067 |  | 4.8 | 
CCCCCCCCCCCCCCCC=O | 35 °C |  |  |  |  |  |  | 
CC=CC(=O)CC |  | 138 °C |  |  |  |  |  | 
COc1cccc(CC(=O)O)c1 | 72 °C |  |  |  |  |  |  | 
CC(C)(O)C(=O)c1ccc(OCCO)cc1 | 89 °C |  |  |  |  |  |  | 
Clc1cc(Cl)cc(-c2cc(Cl)c(Cl)c(Cl)c2Cl)c1 |  |  |  | -4.7 |  |  |  | 
CCNNCC |  | 85.5 °C | 1.18 |  |  |  |  | 
COc1ccc(CCN2CCC(Nc3nc4ccccc4n3Cc3ccc(F)cc3)CC2)cc1 | 149 °C |  |  |  |  |  |  | 
Nc1c(I)cc(I)c(C(=O)N(CCC(=O)O)c2ccccc2)c1I | 134 °C |  |  |  |  |  |  | 
BrCCBr | 9.9 °C | 132 °C | 1.71 | -3.19 | 1.05 | not readily biodegradable |  | 
CCC(CC)c1ccncc1 | 126 °C | 217 °C |  |  |  |  |  | 
COC(=O)c1cc2ccccc2cc1O | 75.5 °C |  |  |  |  |  |  | 
CCCCCCCCOC=O | -39.1 °C | 199 °C |  |  |  |  |  | 
O=C(O)C=Cc1cccc([N+](=O)[O-])c1 | 179 °C |  |  |  |  |  |  | 
COc1ccc2c(c1)C(=O)c1ccccc1C2=O |  |  |  |  | -10.2 |  |  | 
CCC(C)C(C)CC (configuration not stated) |  | 118 °C |  |  | 1.34 |  |  | 0.477
